# In US7345158B2, “Actin related cytoskeletal protein “LACS”” (Anges MG, Inc., priority 2002, dated 2008):
# Positions of bridges follow the written chain, without caps; N, C: chain ends. No end group written: not given here.
# Experiments:
# [1] = test system: LACS mRNA expression in cardiac tissues; assay: LACS mRNA expression in cardiac tissues of L-NAME-administered WKY rats (Northern blotting); format: in vivo, rat; conditions: male WKY rats, oral L-NAME 100 mg/L
# Experimental: RNAs were extracted from the hearts of a male WKY rat group that has been subjected to a one-week oral administration of L-NAME (100 mg/L), and from the hearts of a control group without L-NAME administration. […] As a result, a novel LACS (L-NAME related actin cytoskeletal protein) gene was successfully isolated. […] Furthermore, mRNA expression in tissues other than the heart was also analyzed by Northern blotting. […] Particularly with the heart, the expression of LACS mRNA was confirmed in the myocardial cells.
# [2] = test system: LACS expression in cultured myocardial cells; assay: LACS protein expression in cultured myocardial cells under hypertrophic agonist stimulation; format: cell-based, rat; conditions: for LACS protein expression on hypertrophic agonist stimulation: primary cultured neonatal rat myocardial cells
# Experimental: Primary cultures of myocardial cells isolated from neonatal rats (one- to three-day old) using trypsin and collagenase were prepared. For the first 24 to 48 hours, the cells were cultured in a serum-containing medium, and then for another 24 hours in a serum-free medium.
# Myocardial cells cultured by the same method in Example 4 were used. First, cells were stimulated with the representative hypertrophic agonists, AngII, phenylephrine, and Endothelin-1.
# LACS expression which increases upon phenylephrine stimulation was suppressed by the simultaneous administration of 10 μM of Y27632 (ROCK inhibitor; Calbiochem). […] Rho is a low-molecular-weight GTP-binding protein (small G protein) involved in the contraction of smooth muscles, and regulation of cytokinesis, cell motility, and cytomorphology, via reorganization of actin filaments.
# [3] = test system: LACS mRNA expression in the heart; assay: LACS mRNA expression in the hearts of AngII infusion rats; format: in vivo, rat; conditions: osmotic pump 0.7 mg/kg/day
# Experimental: Cardiac tissues derived from AngII infusion rats (osmotic pump: 0.7 mg/kg/day), and SHRs of 4 weeks and 24 weeks, were used. ATIR antagonist (ARB) and hydrazine (Hyd) were used as antihypertensive agents. Each of the antihypertensive agents was used at an amount sufficient for lowering the blood pressure (10 mg/kg/day for ARB; 12 mg/kg/day for Hyd).
compound,measurement,setting,value
"COC(=O)[C@@H](N)CCCN=C(N)N[N+](=O)[O-].Cl [L-NAME, N^G-Nitro-L-arginine methyl ester, hydrochloride]",LACS mRNA expression level in cardiac tissues after L-NAME administration,[1],reaches its peak one to three days after L-NAME administration
C[C@@H](N)[C@H]1CC[C@H](C(=O)Nc2ccncc2)CC1 [Y27632],Effect on the LACS expression increased by phenylephrine stimulation,"[2]; cultured myocardial cells, simultaneous administration of 10 μM",suppressed
CNC[C@H](O)c1cccc(O)c1 [phenylephrine],LACS protein expression on hypertrophic agonist stimulation,[2],found to increase
"Endothelin-1 (CSCSSLMDKECVYFCHLDIIW; disulfide 1-15, 3-11; ends not checked; UniProt P05305 53-73, looked up) [representative hypertrophic agonist]",LACS protein expression on hypertrophic agonist stimulation,[2],found to increase
"angiotensin II (DRVYIHPF; Angiotensin-2; UniProt P01019 25-32, looked up) [AngII, representative hypertrophic agonist]",LACS protein expression on hypertrophic agonist stimulation,[2],found to increase
same,LACS expression in the heart after AngII administration,[3],increased LACS expression after the third day
